Values after ≈ are worked out from the molar mass of the structure shown.

This test concerns Human betaherpesvirus 5. In words: Concentration required to inhibit human cytomegalovirus by 50 percent. In kind it is functional, organism-based.
As to `Cc1ccccc1CNC(=O)c1ccc2cnccc2n1`, the IC50 (as a rule, the concentration at which inhibition is half-maximal) was 1 µg/mL (≈ 3.61 µM). The value for `CCOc1ccccc1CNC(=O)c1ccc2cnccc2n1` was 0.1 µg/mL (≈ 0.325 µM); that for `COc1ccccc1CN(C)C(=O)c1ccc2cnccc2n1` was greater than 25 µg/mL. With `Cc1cncc2ccc(C(=O)NCc3ccccc3OC(C)C)nc12`, the IC50 amounted to 0.0004 µg/mL (≈ 0.00119 µM). The value for `O=C(NC1CCCOc2ccccc21)c1ccc2cnccc2n1` (stereo not drawn) was 0.5 µg/mL (≈ 1.57 µM); that for `O=C(NCc1ccccc1OC(F)(F)F)c1ccc2cnccc2n1` was 1 µg/mL (≈ 2.88 µM); that for `CC(C)Oc1ccccc1CNC(=O)c1ccc2cnccc2n1` was 0.005 µg/mL (≈ 0.0156 µM). As for `O=C(NC1CCOc2ccccc21)c1ccc2cnccc2n1` (stereo not drawn), the figure is 20 µg/mL (≈ 65.5 µM).

The record behind these values is ChEMBL document CHEMBL1132847, “Substituted 1,6-naphthyridines as human cytomegalovirus inhibitors: conformational requirements” (Bioorg Med Chem Lett, 2000).
